Results reported in article PMC2267459, “Efficient display of active lipase LipB52 with a Pichia pastoris cell surface display system and comparison with the LipB52 displayed on Saccharomyces cerevisiae cell surface” (BMC Biotechnology, 2008).

Target: T1, LipB52 (Pseudomonas fluorescens, UniProt Q6GX93)
T1 construct: lipase fused at its N-terminus to the C-terminus of the FLO flocculation domain (Saccharomyces cerevisiae ATCC 60715) as display anchor
T1 sequence (Q6GX93 1-617): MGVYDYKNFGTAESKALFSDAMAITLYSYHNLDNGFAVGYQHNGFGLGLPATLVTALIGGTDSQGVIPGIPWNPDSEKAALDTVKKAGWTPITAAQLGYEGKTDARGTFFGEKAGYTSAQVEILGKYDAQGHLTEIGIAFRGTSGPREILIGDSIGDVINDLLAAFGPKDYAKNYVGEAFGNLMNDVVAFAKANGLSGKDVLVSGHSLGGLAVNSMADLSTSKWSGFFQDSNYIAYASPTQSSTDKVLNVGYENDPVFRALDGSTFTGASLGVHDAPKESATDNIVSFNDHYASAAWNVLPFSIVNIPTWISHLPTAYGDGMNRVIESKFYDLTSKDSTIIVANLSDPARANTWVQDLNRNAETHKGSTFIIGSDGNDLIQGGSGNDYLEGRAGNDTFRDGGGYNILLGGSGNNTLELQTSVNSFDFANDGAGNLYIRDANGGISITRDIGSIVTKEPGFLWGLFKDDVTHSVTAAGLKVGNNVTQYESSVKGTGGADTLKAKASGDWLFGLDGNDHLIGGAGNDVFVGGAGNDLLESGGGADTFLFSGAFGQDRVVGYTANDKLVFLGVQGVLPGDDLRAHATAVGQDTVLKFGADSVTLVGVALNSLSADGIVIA
Assay: p-nitrophenol release by displayed whole cells
Assay type: cell-based
Settings: yeast surface-displayed (whole-cell) enzyme

Compound	p-nitrophenol release by displayed whole cells (pH 8.0, 40 °C)	p-nitrophenol release by displayed whole cells (conditions not stated for this substrate)
CCCCCCCCCC(=O)Oc1ccc([N+](=O)[O-])cc1 [C10, p-nitrophenol-caprate]	the optimum substrate was p-nitrophenol-caprate (C10)	–
CCCCCCCCCCCC(=O)Oc1ccc([N+](=O)[O-])cc1 [C12, p-nitrophenol ester (C12)]	–	exhibited evident hydrolysis activity towards the p-nitrophenol ester
